Results on nine compounds are retold here after PubChem BioAssay AID2060606 (Molecular Pharmacology Branch, DTP, NCI, 2025).

In the assay the test system is 922993-354-T-J3-PDC complex spheroids, viability, % test/control. The assay can be described thus: Anticancer human tumor 922993-354-T-J3-PDC patient-derived endometrial carcinoma cell line growth inhibition [CLK]. Particulars: for viability, T/C: stronger effect = lower value. From the text: A high-throughput screen of multi-cell type tumor spheroids was designed to identify active combinations of […] and targeted small molecules. Complex spheroids include a stromal component modeled by human endothelial cells (HUVEC) and fibroblasts modeled by human mesenchymal stem cells (MSCs). The concentration ranges selected for each drug and investigational agent were based upon clinically achievable concentrations if the clinical Cmax of the agent was known.
Compounds. The drugs and investigational agents: cirtuvivint (SM08502; NSC835563), CC-671 (NSC850746), vemurafenib (NSC761431), tapotoclax (NSC804041), sotorasib (NSC818433), adagrasib (NSC831453), MRTX-1133 (NSC836407), BAY2416964 (NSC825713), copanlisib (NSC816437), inavolisib (NSC800729), abemaciclib (NSC768073), osimertinib (NSC779217), entinostat (NSC756642), eltanexor (KPT-8602, NSC794443), venetoclax (NSC766270), ceralasertib (NSC777638), bortezomib (NSC756655), olaparib (NSC753686), talazoparib (NSC767125), alisertib (NSC759677), peposertib (NSC802822), gemcitabine (NSC613327), 5-fluorouracil (NSC19893), SN-38 (NSC673596), oxaliplatin (NSC266046), paclitaxel (NSC125973), and doxorubicin (NSC123127), were obtained from the National Cancer Institute (NCI) Developmental Therapeutics Program Chemical Repository. The FDA-approved anticancer drug set is available from the Developmental Therapeutics Program at https://dtp.cancer.gov/organization/dscb/obtaining/available plates.htm. […] The stock solutions were prepared in dimethyl sulfoxide (DMSO, Sigma-Aldrich, St. Louis, MO, cat. D2650), except for the platinum complexes which were prepared in saline (Quality Biological, Gaithersburg, MD, cat. 114-055-101), at 800-fold the tested concentration and stored at -70 degrees C prior to their use. All drugs and investigational agents were tested over a range starting from a high concentration at or near the clinical Cmax and decreasing in half-log increments. If the clinical Cmax for an agent had not been determined, the highest concentration tested was 10 microM.
Cell Culture. All cells were maintained in an incubator at 37 degrees C and 5% CO2 with 95% humidity. The PDC lines were cultured according to standard operating procedures established by the NCI PDMR. Briefly, all PDCs were thawed and cultured in Matrigel-coated flasks prepared with a working solution of 1X Ham's F-12 nutrient mix, without supplementation (Invitrogen, Waltham, MA, cat. 11765054), 100 U/mL penicillin-streptomycin (Invitrogen, cat. 15140122), and 2.5% Matrigel (Corning Inc., Corning, NY, cat. 354248) for the first three passages. The 947758-054-R-J2-PDC line was cultured in 6B/Colon 1A media, which includes advanced DMEM/F-12 (Thermo Fisher Scientific, cat. 12634028), 10 mM HEPES (Thermo Fisher Scientific, cat. 15630080), 1X GlutaMAX supplement (Thermo Fisher Scientific, cat. 35050061), 0.1 mg/mL primocin (InvivoGen, cat. ant-pm-2), 10% defined fetal bovine serum, heat inactivated (HyClone Laboratories Inc., cat. SH30070.03HI), 1.25 mM N-Acetyl-L-cysteine (Sigma-Aldrich, cat. A9165), 10 mM nicotinamide (Sigma-Aldrich, cat. N0636), 1X B-27 supplement (Thermo Fisher Scientific, cat. 17504044), 1X N-2 supplement (Thermo Fisher Scientific, cat. 17502048), and 10 microM Y-27632 dihydrochloride (Tocris Bioscience, cat. 1254). The 876862-298-R-J1-PDC was cultured in 6E media, which includes all 6B/Colon 1A media components plus 50% L-WRN conditioned media (ATCC, cat. CRL-3276), 50 ng/mL recombinant human EGF recombinant protein (hEGF; Thermo Fisher Scientific, cat. PHG0311), 10 ng/mL recombinant human fibroblast growth factor 10 (hGFG-10; PeproTech, cat. 100-26), 1 ng/mL recombinant human fibroblast growth factor 2 (hFGF-2; PeproTech, cat. 100-18B), and 1 µM prostaglandin E2 (PGE2; Tocris, cat. 2296). The 227483-062-R1-J1-PDC line was cultured in Panc media, containing all 6E components except hFGF-2, with the addition of 500 nM SB-431542 (Selleckchem, cat. S1067) and 10 nM gastrin (Tocris, cat. 3006). […]

SMILES strings stand for the structures. Several values for one entry are separate records, joined by “and”; a condition that tells them apart may be missing. Equal entries are not always repeated.
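Also: spheroids exposed to the agents for 7 days before readout.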

`CC(=O)O[C@H]1C(=O)[C@@]2(C)[C@H]([C@H](OC(=O)c3ccccc3)[C@]3(O)C[C@H](OC(=O)[C@H](O)[C@@H](NC(=O)c4ccccc4)c4ccccc4)C(C)=C1C3(C)C)[C@]1(OC(C)=O)CO[C@@H]1C[C@@H]2O`: the viability, T/C is 105% and 92.5% (compound 0.0316 µM); 79% and 115% (compound 0.1 µM); 84% and 85.9% (compound 0.316 µM); 95.6% and 88.3% (compound 1 µM); 52.7% and 71.6% (compound 3.16 µM); 37.1% and 40.2% (compound 10 µM). For the same compound, under “curve of compound”, the concentration for half-maximal inhibition (IC50) is 3.86 µM and 6.98 µM.
As to `CC1COCCN1c1cc(C2(S(C)(=N)=O)CC2)nc(-c2ccnc3[nH]ccc23)n1` (stereo unspecified), the viability, T/C (compound 0.0316 µM) is 101% and 91.8%; the viability, T/C (compound 0.1 µM) was 118% and 86.8%; the viability, T/C (compound 0.316 µM) was 130% and 91.7%; the viability, T/C (compound 1 µM) is 90.4% and 102%; the viability, T/C (compound 3.16 µM) was 108% and 94.2%; the viability, T/C (compound 10 µM) was 68.6% and 78.2%. Further, the IC50 (curve of compound) is greater than 10 µM.
Turning to `CN1CCN(c2cc(C(=O)Nc3cc4cc(-c5cnn(C)c5)ccc4cn3)ccn2)CC1`, the viability, T/C runs as follows: (compound 0.1 µM) 97.6% [middle of 12 runs]; (compound 1 µM) 1.97% [middle of 12 runs]; (compound 3.16 µM) 0.81% [middle of 12 runs]; (compound 10 µM) 0.24% [middle of 12 runs]. The concentration for half-maximal inhibition (IC50) (compound alone, run of 09/18/2023) is 266 nM [middle of 12 runs].
`COc1ccc([C@@H](O)c2cc(-c3ncnc4cc(N5CCOCC5)ccc34)c(F)cc2Cl)nn1`: the viability, T/C runs as follows: (compound 0.0316 µM) 87.2% and 87.1%; (compound 0.1 µM) 104% and 94.9%; (compound 0.316 µM) 87.7% and 98.9%; (compound 1 µM) 113% and 98.2%; (compound 3.16 µM) 85.8% and 117%; (compound 10 µM) 82.8% and 89.9%. Also, the IC50 (curve of compound) is greater than 10 µM.
Regarding `COc1cccc2c1C(=O)c1c(O)c3c(c(O)c1C2=O)CC(O)(C(=O)CO)CC3OC1CC(N)C(O)C(C)O1` (stereo unspecified), the viability, T/C (compound 0.0316 µM) is 92.5% and 100%; the viability, T/C (compound 0.1 µM) is 97.2% and 86%; the viability, T/C (compound 0.316 µM) is 91.5% and 102%; the viability, T/C (compound 1 µM) is 63.7% and 75.1%; the viability, T/C (compound 3.16 µM) was 38.8% and 41.3%; the viability, T/C (compound 10 µM) is 13.7% and 21.8%. In addition, the IC50 (curve of compound) was 1.91 µM and 2.33 µM.
Regarding `Nc1ccn(C2OC(CO)C(O)C2(F)F)c(=O)n1` (stereo unspecified), the viability, T/C runs as follows: (compound 0.0316 µM) 15.9% and 15.4%; (compound 0.1 µM) 17.1% and 18.3%; (compound 0.316 µM) 15.5% and 15.6%; (compound 1 µM) 15.6% and 16.5%; (compound 3.16 µM) 15.1% and 13.7%; (compound 10 µM) 13.5% and 14.2%. The 50% inhibitory concentration (IC50) (curve of compound) was less than 0.0316 µM.
With `O=C(c1cc(Cc2n[nH]c(=O)c3ccccc23)ccc1F)N1CCN(C(=O)C2CC2)CC1`, the viability, T/C is 81.9% and 98.5% (compound 0.0316 µM); 91.4% and 88.5% (compound 0.1 µM); 85.5% and 102% (compound 0.316 µM); 93% and 118% (compound 1 µM); 96.8% and 107% (compound 3.16 µM); 83.2% and 100% (compound 10 µM). Besides, the half-inhibitory concentration (IC50) (curve of compound) was greater than 10 µM.
With `O=c1[nH]cc(F)c(=O)[nH]1`, the viability, T/C by setting is: (compound 0.0316 µM) 102% and 101%; (compound 0.1 µM) 95.8% and 97.9%; (compound 0.316 µM) 86.8% and 93.4%; (compound 1 µM) 104% and 115%; (compound 3.16 µM) 38% and 60.7%; (compound 10 µM) 26.7% and 35.1%. Moreover, for the setting “curve of compound”, the IC50 is 2.51 µM and 5.11 µM.
For `CCCS(=O)(=O)Nc1ccc(F)c(C(=O)c2c[nH]c3ncc(-c4ccc(Cl)cc4)cc23)c1F` + CN1CCN(c2cc(C(=O)Nc3cc4cc(-c5cnn(C)c5)ccc4cn3)ccn2)CC1, the 50% inhibitory concentration (IC50) by setting is: (curve of first compound, second compound 0.0316 µM) greater than 10 µM; (curve of first compound, second compound 0.1 µM) 9.22 µM; (curve of first compound, second compound 0.316 µM) less than 0.0316 µM; (curve of first compound, second compound 1 µM) less than 0.0316 µM; (curve of first compound, second compound 3.16 µM) less than 0.0316 µM; (curve of first compound, second compound 10 µM) less than 0.0316 µM. The viability, T/C was 95.3% (second compound 0.0316 µM, first compound 0.0316 µM); 113% (second compound 0.0316 µM, first compound 0.1 µM); 118% (second compound 0.0316 µM, first compound 0.316 µM); 97.9% (second compound 0.0316 µM, first compound 1 µM); 96.6% (second compound 0.0316 µM, first compound 3.16 µM); 65.3% (second compound 0.0316 µM, first compound 10 µM). Also, the viability, T/C is, setting by setting: (second compound 0.1 µM, first compound 0.0316 µM) 107%; (second compound 0.1 µM, first compound 0.1 µM) 90.5%; (second compound 0.1 µM, first compound 0.316 µM) 91.5%; (second compound 0.1 µM, first compound 1 µM) 87.6%; (second compound 0.1 µM, first compound 3.16 µM) 86.2%; (second compound 0.1 µM, first compound 10 µM) 46.7%. For the same compound, the viability, T/C reads like this: (second compound 0.316 µM, first compound 0.0316 µM) 46.6%; (second compound 0.316 µM, first compound 0.1 µM) 40.4%; (second compound 0.316 µM, first compound 0.316 µM) 43.4%; (second compound 0.316 µM, first compound 1 µM) 43.9%; (second compound 0.316 µM, first compound 3.16 µM) 44.6%; (second compound 0.316 µM, first compound 10 µM) 26.7%. Further, the viability, T/C by setting is: (second compound 1 µM, first compound 0.0316 µM) 0.14%; (second compound 1 µM, first compound 0.1 µM) 0.16%; (second compound 1 µM, first compound 0.316 µM) 0.15%; (second compound 1 µM, first compound 1 µM) 0.15%; (second compound 1 µM, first compound 3.16 µM) 1.71%; (second compound 1 µM, first compound 10 µM) 1.78%. Besides, the viability, T/C was 0.09% (second compound 3.16 µM, first compound 0.0316 µM); 0.13% (second compound 3.16 µM, first compound 0.1 µM); 0.82% (second compound 3.16 µM, first compound 0.316 µM); 0.14% (second compound 3.16 µM, first compound 1 µM); 2.22% (second compound 3.16 µM, first compound 3.16 µM); 1.32% (second compound 3.16 µM, first compound 10 µM). Further, the viability, T/C runs as follows: (second compound 10 µM, first compound 0.0316 µM) 0.18%; (second compound 10 µM, first compound 0.1 µM) 0.16%; (second compound 10 µM, first compound 0.316 µM) 1.26%; (second compound 10 µM, first compound 1 µM) 0.19%; (second compound 10 µM, first compound 3.16 µM) 1.53%; (second compound 10 µM, first compound 10 µM) 0.25%.
